The values that follow come from the PolyMetriX glass transition set.

Molecules are shown by their SMILES.

Compound `*/C=C(/*)C(CCCCC)[Si](C)(C)C` (repeat unit) came in with a glass transition temperature of 170.00 °C.

On to `*/C=C(\C#N)C(=O)NC1CCCCC1NC(=O)/C(C#N)=C/c1ccc(/C=C/c2ccc(N(CC)Cc3ccccc3CN(CC)c3ccc(/C=C/c4ccc(*)s4)cc3)cc2)s1` (repeat unit), for which the glass transition temperature was determined as 195.00 °C.

As for `*CC(=O)Nc1ccc(C2(c3ccc(NC(=O)Cn4c(=O)c5cc6c(=O)n(*)c(=O)c6cc5c4=O)cc3)c3ccccc3-c3ccccc32)cc1` (repeat unit), the glass transition temperature was determined as 350.00 °C.

The compound `*CCCCCCOP(=O)(/N=N/c1ccc(-c2ccc(/N=N/P(=O)(O*)OC)cc2)cc1)OC` (repeat unit) yielded a glass transition temperature of 37.00 °C.

`*CCCCCCOP(=O)(/N=N/c1ccc(Oc2ccc(/N=N/P(=O)(O*)OC)cc2)cc1)OC` (repeat unit) registered a glass transition temperature of 25.00 °C.

The compound `*CCN(CCOC(=O)c1ccc(C(=O)O*)c(OCCC)c1)c1ccc(C=C(C#N)C#N)cc1` (repeat unit) gave a glass transition temperature of 94.00 °C.

`*CCOC(=O)c1cc(C(=O)O*)cc(C(C)(C)C)c1` (repeat unit) registered a glass transition temperature of 94.00 °C.

Consider `*CCOCCOC(=O)C(C)C(=O)O*` (repeat unit), for which the glass transition temperature is -29.00 °C.

`*CCOCCOC(=O)C(CCC)C(=O)O*` (repeat unit): the glass transition temperature was -38.00 °C.

As for `*CCOCCOC(=O)C(CCCCC)C(=O)O*` (repeat unit), the glass transition temperature is -47.00 °C.

Turning to `*CCOP(=O)(/N=N/c1ccc(-c2ccc(/N=N/P(=O)(O*)OCC)cc2)cc1)OCC` (repeat unit), the glass transition temperature came out at 43.00 °C.

Regarding `*CCOP(=O)(/N=N/c1ccc(C(=O)c2ccc(/N=N/P(=O)(O*)OCC)cc2)cc1)OCC` (repeat unit), the glass transition temperature amounted to 33.00 °C.

Regarding `*Cc1ccccc1CN(CC)c1ccc(/C=C/c2ccc(/C=C(\C#N)C(=O)NC3CCCCC3NC(=O)/C(C#N)=C/c3ccc(/C=C/c4ccc(N(*)CC)cc4)cc3)cc2)cc1` (repeat unit), the glass transition temperature amounted to 201.00 °C.

`*Cc1ccccc1[Si](*)(C)C` (repeat unit) yielded a glass transition temperature of 48.00 °C.

Regarding `*Cc1ccccc1[Si](*)(C)c1ccccc1` (repeat unit), the glass transition temperature is 93.80 °C.

Compound `*Cc1ccccc1[Si](*)(c1ccccc1)c1ccccc1` (repeat unit) returned a glass transition temperature of 122.00 °C.

Compound `*N(C)[Si](*)(C)C` (repeat unit) gave a glass transition temperature of -20.00 °C.

With `*N(C)[Si](C)(C=C)N(C)[Si](*)(C)C` (repeat unit), the glass transition temperature is -42.00 °C.

The compound `*N=P(*)(C)CCCC` (repeat unit) returned a glass transition temperature of -51.00 °C.

In the case of `*N=P(*)(CC1COCCOCCOCCO1)OCC1COCCOCCOCCO1` (repeat unit), the glass transition temperature is -40.00 °C.

As for `*Nc1cc([N+](=O)[O-])c(NC(=O)CCCCCCCCCCCCC(*)=O)cc1/C=C/c1ccc(N(C)C)cc1` (repeat unit), the glass transition temperature was 125.00 °C.

The compound `*OC(=O)C(C)NC(=O)CCCCC(=O)NC(C)C(=O)OC1COC2C(*)COC12` (repeat unit) had a glass transition temperature of 56.00 °C.

`*OC(=O)C(CC(C)C)NC(=O)CCCCCCCCC(=O)NC(CC(C)C)C(=O)OC1COC2C(*)COC12` (repeat unit): the glass transition temperature is 89.00 °C.

In turn, `*OC(=O)C(CCSC)NC(=O)CCCCC(=O)NC(CCSC)C(=O)OC1COC2C(*)COC12` (repeat unit) registered a glass transition temperature of 71.00 °C.

As to `*Oc1ccc(-c2ccc(OC(=O)c3cc(OCCCCCC)c(C(*)=O)cc3OCCCCCC)cc2)cc1` (repeat unit), the glass transition temperature is 113.00 °C.

In the case of `*Oc1ccc(CC(C#N)(C#N)Cc2ccc(*)cc2)cc1` (repeat unit), the glass transition temperature is 147.00 °C.

`*Oc1ccc(CC(NC(=O)CCc2ccc(OC(=O)CCCC(*)=O)cc2)C(=O)OCCCC)cc1` (repeat unit) gave a glass transition temperature of 56.00 °C.

On to `*Oc1ccc(CC(NC(=O)CCc2ccc(OC(=O)CCCC(*)=O)cc2)C(=O)OCCCCCCCCCCCC)cc1` (repeat unit), for which the glass transition temperature worked out at 27.50 °C.

`*Oc1ccc(CC(NC(=O)CCc2ccc(OC(=O)CCCCC(*)=O)cc2)C(=O)OC(C)C)cc1` (repeat unit) displayed a glass transition temperature of 56.50 °C.

The compound `*Oc1ccc(CC(NC(=O)CCc2ccc(OC(=O)CCCCC(*)=O)cc2)C(=O)OCCCC)cc1` (repeat unit) came in with a glass transition temperature of 46.00 °C.

For `*Oc1ccc(CC(NC(=O)CCc2ccc(OC(=O)CCCCC(*)=O)cc2)C(=O)OCCCCCC)cc1` (repeat unit), the glass transition temperature is 37.73 °C.

The compound `*Oc1ccc(CC(NC(=O)CCc2ccc(OC(=O)CCCCC(*)=O)cc2)C(=O)OCCCCCCCC)cc1` (repeat unit) showed a glass transition temperature of 28.00 °C.

`*Oc1ccc(CC(NC(=O)CCc2ccc(OC(=O)CCCCC(*)=O)cc2)C(=O)OCCCCCCCCCCCC)cc1` (repeat unit) had a glass transition temperature of 22.00 °C.

`*Oc1ccc(CC(NC(=O)CCc2ccc(OC(=O)CCCCC(*)=O)cc2)C(=O)OCCOCCOCC)cc1` (repeat unit): the glass transition temperature was found to be 15.00 °C.

`*Oc1ccc(CC(NC(=O)CCc2ccc(OC(=O)CCCCCCC(*)=O)cc2)C(=O)OC(C)C)cc1` (repeat unit) had a glass transition temperature of 46.00 °C.

As to `*Oc1ccc(CC(NC(=O)CCc2ccc(OC(=O)CCCCCCC(*)=O)cc2)C(=O)OC)cc1` (repeat unit), the glass transition temperature was determined as 55.50 °C.

`*Oc1ccc(CC(NC(=O)CCc2ccc(OC(=O)CCCCCCC(*)=O)cc2)C(=O)OCC)cc1` (repeat unit) gave a glass transition temperature of 50.00 °C.

Compound `*Oc1ccc(CC(NC(=O)CCc2ccc(OC(=O)CCCCCCC(*)=O)cc2)C(=O)OCCCC)cc1` (repeat unit) had a glass transition temperature of 37.00 °C.

`*Oc1ccc(CC(NC(=O)CCc2ccc(OC(=O)CCCCCCCCC(*)=O)cc2)C(=O)OC(C)CC)cc1` (repeat unit): the glass transition temperature was 36.00 °C.

With `*Oc1ccc(CC(NC(=O)CCc2ccc(OC(=O)CCCCCCCCC(*)=O)cc2)C(=O)OC)cc1` (repeat unit), the glass transition temperature stood at 47.00 °C.

As to `*Oc1ccc(CC(NC(=O)CCc2ccc(OC(=O)CCCCCCCCC(*)=O)cc2)C(=O)OCC)cc1` (repeat unit), the glass transition temperature is 44.00 °C.

`*Oc1ccc(CC(NC(=O)CCc2ccc(OC(=O)CCCCCCCCC(*)=O)cc2)C(=O)OCCCC)cc1` (repeat unit) had a glass transition temperature of 30.00 °C.

`*Oc1ccc(CC(NC(=O)CCc2ccc(OC(=O)CCCCCCCCC(*)=O)cc2)C(=O)OCCCCCC)cc1` (repeat unit) showed a glass transition temperature of 22.00 °C.

`*Oc1ccc(CC(NC(=O)CCc2ccc(OC(=O)CCCCCCCCC(*)=O)cc2)C(=O)OCCCCCCCCCCCC)cc1` (repeat unit) registered a glass transition temperature of 12.50 °C.

In turn, `*Oc1ccc(CC(NC(=O)CCc2ccc(OC(=O)COCC(*)=O)cc2)C(=O)OC)cc1` (repeat unit) came in with a glass transition temperature of 82.00 °C.

As to `*Oc1ccc(CC(NC(=O)CCc2ccc(OC(=O)COCC(*)=O)cc2)C(=O)OCC(C)C)cc1` (repeat unit), the glass transition temperature came to 72.00 °C.

`*Oc1ccc(CC(NC(=O)CCc2ccc(OC(=O)COCC(*)=O)cc2)C(=O)OCCCC)cc1` (repeat unit): the glass transition temperature was 64.00 °C.

Consider `*Oc1ccc(CC(NC(=O)CCc2ccc(OC(=O)COCC(*)=O)cc2)C(=O)OCCCCCC)cc1` (repeat unit), for which the glass transition temperature was 45.00 °C.

`*Oc1ccc(CC(NC(=O)CCc2ccc(OC(=O)COCC(*)=O)cc2)C(=O)OCCCCCCCC)cc1` (repeat unit) came in with a glass transition temperature of 40.00 °C.

Consider `*Oc1ccc(CC(NC(=O)CCc2ccc(OC(=O)COCC(*)=O)cc2)C(=O)OCCOCCOCC)cc1` (repeat unit), for which the glass transition temperature was 27.00 °C.

`*Oc1ccc(CC(NC(=O)CCc2ccc(OC(=O)COCCOCC(*)=O)cc2)C(=O)OCCCCCCCC)cc1` (repeat unit) displayed a glass transition temperature of 16.00 °C.

`*Oc1ccc(CC(NC(=O)CCc2ccc(OC(=O)COCCOCC(*)=O)cc2)C(=O)OCCOCCOCC)cc1` (repeat unit) had a glass transition temperature of 18.00 °C.

`*Oc1ccc(CC(NC(=O)Cc2ccc(OC(=O)CC(C)CCC(*)=O)cc2)C(=O)OCCCCCC)cc1` (repeat unit) showed a glass transition temperature of 38.00 °C.

The compound `*Oc1ccc(CC(NC(=O)Cc2ccc(OC(=O)CCCC(*)=O)cc2)C(=O)OCCCCCC)cc1` (repeat unit) came in with a glass transition temperature of 42.00 °C.

For the compound `*Oc1ccc(CC(NC(=O)Cc2ccc(OC(=O)CCCCC(*)=O)cc2)C(=O)OCC)cc1` (repeat unit), the glass transition temperature is 63.00 °C.

Consider `*Oc1ccc(CC(NC(=O)Cc2ccc(OC(=O)CCCCCCCCC(*)=O)cc2)C(=O)OCC)cc1` (repeat unit), for which the glass transition temperature stood at 43.00 °C.

With `*Oc1ccc(CC(NC(=O)Cc2ccc(OC(=O)CCCCCCCCC(*)=O)cc2)C(=O)OCCCCCC)cc1` (repeat unit), the glass transition temperature worked out at 23.00 °C.

Compound `*Oc1ccc(CC(NC(=O)Cc2ccc(OC(=O)CCCCCCCCC(*)=O)cc2)C(=O)OCCCCCCCC)cc1` (repeat unit) gave a glass transition temperature of 16.00 °C.

The compound `*Oc1ccc(CC(NC(=O)Cc2ccc(OC(=O)COCC(*)=O)cc2)C(=O)OCCCCCC)cc1` (repeat unit) yielded a glass transition temperature of 46.00 °C.

The compound `*Oc1ccc(CC(NC(=O)Cc2ccc(OC(=O)COCC(*)=O)cc2)C(=O)OCCCCCCCC)cc1` (repeat unit) came in with a glass transition temperature of 51.00 °C.

Regarding `*Oc1ccc(CC2(Cc3ccc(*)cc3)c3ccccc3-c3ccccc32)cc1` (repeat unit), the glass transition temperature was 138.00 °C.

For the compound `*Oc1ccc(NC(=O)NC2CC(C)(C)CC(C)(CNC(=O)Nc3ccc(*)c(-c4ccc(Oc5ccccc5)cc4)c3)C2)cc1-c1ccc(Oc2ccccc2)cc1` (repeat unit), the glass transition temperature came out at 281.00 °C.

For the compound `*Oc1ccc(NC(=O)NC2CC(C)(C)CC(C)(CNC(=O)Nc3ccc(*)cc3)C2)cc1` (repeat unit), the glass transition temperature came to 274.00 °C.

Compound `*c1ccc(/C=N/c2cccc(/N=C/c3ccc(-c4ccc(*)s4)cc3)c2)cc1` (repeat unit) showed a glass transition temperature of 150.00 °C.
